Source: patent US10358427B2, “Modulators of indoleamine 2,3-dioxygenase” (GLAXOSMITHKLINE INTELLECTUAL PROPERTY DEVELOPMENT LIMITED, priority 2015, dated 2019)
Where a name gives a salt, the structure may show the parent alone.

What was measured:
[1] = biological target: T1, indoleamine 2, 3-dioxygenase (IDO1) (Homo sapiens, UniProt P14902); experiment: HeLa IDOi assay (kynurenine detection via mass spectrometry); type: cell-based; design: human epithelial HeLa cells (CCL-2; host or cells: HeLa cells stimulated with human IFN-γ; conditions: human epithelial HeLa cells stimulated with IFN-γ; kynurenine by mass spectrometry; 2 days incubation
T1 sequence (P14902 whole entry): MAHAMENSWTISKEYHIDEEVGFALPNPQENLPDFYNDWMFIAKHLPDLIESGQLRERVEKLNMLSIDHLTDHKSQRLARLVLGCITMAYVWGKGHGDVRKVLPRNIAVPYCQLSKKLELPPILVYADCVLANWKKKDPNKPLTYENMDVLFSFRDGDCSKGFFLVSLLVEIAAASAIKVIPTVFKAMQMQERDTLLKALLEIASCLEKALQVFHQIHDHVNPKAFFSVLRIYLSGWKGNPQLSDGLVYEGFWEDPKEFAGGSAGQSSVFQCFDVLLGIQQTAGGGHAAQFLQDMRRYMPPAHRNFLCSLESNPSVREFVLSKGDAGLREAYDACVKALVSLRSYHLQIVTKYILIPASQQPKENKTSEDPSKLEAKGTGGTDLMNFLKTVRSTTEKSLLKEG
Procedure: (§1) Compounds of the present invention were tested via high-throughput cellular assays utilizing detection of kynurenine via mass spectrometry and cytotoxicity as end-points. For the mass spectrometry and cytotoxicity assays, human epithelial HeLa cells (CCL-2; ATCC®, Manassas, Va.) were stimulated with human interferon-γ (IFN-γ) (Sigma-Aldrich Corporation, St. Louis, Mo.) to induce the expression of indoleamine 2, 3-dioxygenase (IDO1). Compounds with IDO1 inhibitory properties decreased the amount of kynurenine produced by the cells via the tryptophan catabolic pathway. Cellular toxicity due to the effect of compound treatment was measured using CellTiter-Glo® reagent (CTG) (Promega Corporation, Madison, Wis.), which is based on luminescent detection of ATP, an indicator of metabolically active cells.
(§2) In preparation for the assays, test compounds were serially diluted 3-fold in DMSO from a typical top concentration of 5 mM and plated at 0.5 μL in 384-well, polystyrene, clear bottom, tissue culture treated plates with lids (Greiner Bio-One, Kremsmünster, Austria) to generate 11-point dose response curves. Low control wells (0% kynurenine or 100% cytotoxicity) contained either 0.5 μL of DMSO in the presence of unstimulated (−IFN-γ) HeLa cells for the mass spectrometry assay or 0.5 μL of DMSO in the absence of cells for the cytotoxicity assay, and high control wells (100% kynurenine or 0% cytotoxicity) contained 0.5 μL of DMSO in the presence of stimulated (+IFN-γ) HeLa cells for both the mass spectrometry and cytotoxicity assays.
Frozen stocks of HeLa cells were washed and recovered in DMEM high glucose medium with HEPES (Thermo Fisher Scientific, Inc., Waltham, Mass.) supplemented with 10% v/v certified fetal bovine serum (FBS) (Thermo Fisher Scientific, Inc., Waltham, Mass.), and 1× penicillin-streptomycin antibiotic solution (Thermo Fisher Scientific, Inc., Waltham, Mass.). The cells were diluted to 100,000 cells/mL in the supplemented DMEM medium. 50 μL of either the cell suspension, for the mass spectrometry assay, or medium alone, for the cytotoxicity assay, were added to the low control wells, on the previously prepared 384-well compound plates, resulting in 5,000 cells/well or 0 cells/well respectively. IFN-γ was added to the remaining cell suspension at a final concentration of 10 nM, and 50 μL of the stimulated cells were added to all remaining wells on the 384-well compound plates. The plates, with lids, were then placed in a 37° C., 5% CO2 humidified incubator for 2 days.
(§3) Following incubation, the 384-well plates were removed from the incubator and allowed to equilibrate to room temperature for 30 minutes. For the cytotoxicity assay, CellTiter-Glo® was prepared according to the manufacturer's instructions, and 10 μL were added to each plate well. After a twenty minute incubation at room temperature, luminescence was read on an EnVision® Multilabel Reader (PerkinElmer Inc., Waltham, Mass.). For the mass spectrometry assay, 10 μL of supernatant from each well of the compound-treated plates were added to 40 μL of acetonitrile, containing 10 μM of an internal standard for normalization, in 384-well, polypropylene, V-bottom plates (Greiner Bio-One, Kremsmünster, Austria) to extract the organic analytes. Following centrifugation at 2000 rpm for 10 minutes, 10 μL from each well of the acetonitrile extraction plates were added to 90 μL of sterile, distilled H2O in 384-well, polypropylene, V-bottom plates for analysis of kynurenine and the internal standard on the RapidFire 300 (Agilent Technologies, Santa Clara, Calif.) and 4000 QTRAP MS (SCIEX, Framingham, Mass.). MS data were integrated using Agilent Technologies' RapidFire Integrator software, and data were normalized for analysis as a ratio of kynurenine to the internal standard. […]

[2] = biological target: T1, indoleamine 2, 3-dioxygenase (IDO1); experiment: PBMC IDOi assay (kynurenine detection via mass spectrometry); type: cell-based; conditions: human PBMC stimulated with IFN-γ and LPS; kynurenine by mass spectrometry; 2 days incubation
Procedure: as §1, with “peripheral blood mononuclear” for “epithelial HeLa”, “(PBMC) (PB003F; AlICells®, Alameda, Calif.)” for “(CCL-2; ATCC®, Manassas, Va.)”, “Mo.) and lipopolysaccharide from Salmonella minnesota (LPS) (Invivogen, San Diego, Calif.)” for “Mo.)”
as §2, with “(−IFN-γ/−LPS) PBMCs” for “(−IFN-γ) HeLa cells”, “(+IFN-γ/+LPS) PBMCs” for “(+IFN-γ) HeLa cells”
Frozen stocks of PBMCs were washed and recovered in RPMI 1640 medium (Thermo Fisher Scientific, Inc., Waltham, Mass.) supplemented with 10% v/v heat-inactivated fetal bovine serum (FBS) (Thermo Fisher Scientific, Inc., Waltham, Mass.), and 1× penicillin-streptomycin antibiotic solution (Thermo Fisher Scientific, Inc., Waltham, Mass.). The cells were diluted to 1,000,000 cells/mL in the supplemented RPMI 1640 medium. 50 μL of either the cell suspension, for the mass spectrometry assay, or medium alone, for the cytotoxicity assay, were added to the low control wells, on the previously prepared 384-well compound plates, resulting in 50,000 cells/well or 0 cells/well respectively. IFN-γ and LPS were added to the remaining cell suspension at final concentrations of 100 ng/ml and 50 ng/ml respectively, and 50 μL of the stimulated cells were added to all remaining wells on the 384-well compound plates. The plates, with lids, were then placed in a 37° C., 5% CO2 humidified incubator for 2 days.
as §3, with “and 40” for “and 10”

| Structure (SMILES) | EC50 [1] [nM] | EC50 [2] [nM] |
| --- | --- | --- |
| CC(C)CN(c1ccc([C@H]2C[C@H]2C(=O)O)cc1Nc1nc2ccccc2o1)C1CCCCC1 (relative stereo) [Example 1, cis-2-(3-(Benzo[d]oxazol-2-ylamino)-4-(cyclohexyl(isobutyl)amino)phenyl)cyclopropanecarboxylic acid] | 100 | – |
| CC(C)CN(c1ccc([C@H]2C[C@H]2C(=O)O)cc1Nc1nc(-c2ccccc2)co1)C1CCCCC1 (relative stereo) [Example 5, cis-2-(4-(Cyclohexyl(isobutyl)amino)-3-((4-phenyloxazol-2-yl)amino)phenyl)cyclopropanecarboxylic acid] | 398 | – |
| CC(C)CN(c1ccc(C2CC2C(=O)O)cc1Nc1nc2ccccc2[nH]1)C1CCCCC1 (stereo not drawn) [Example 2, cis-2-(3-((1H-Benzo[d]imidazol-2-yl)amino)-4-(cyclohexyl(isobutyl)amino)phenyl)cyclopropanecarboxylic acid] | 5.01 | – |
| CC(C)CN(c1ccc(-c2ccccc2C(=O)O)cc1Nc1nc2ccccc2o1)C1CCCCC1 [Example 7, 3′-(Benzo[d]oxazol-2-ylamino)-4′-(cyclohexyl(isobutyl)amino)-[1,1′-biphenyl]-2-carboxylic acid] | 79.4 | 39.8 |
| CC(C)CN(c1ccc(-c2ccccc2-c2nnn[nH]2)cc1Nc1nc2ccccc2o1)C1CCCCC1 [Example 11, N^3-(Benzo[d]oxazol-2-yl)-N^4-cyclohexyl-N^4-isobutyl-2′-(1H-tetrazol-5-yl)-[1,1′-biphenyl]-3,4-diamine] | 25.1 | 15.8 |
| CCCCc1cc(-c2ccccc2-c2nnn[nH]2)cc(Nc2nc3ccccc3o2)c1OCCC [Example 14, N-(5-Butyl-4-propoxy-2′-(1H-tetrazol-5-yl)-[1,1′-biphenyl]-3-yl)benzo[d]oxazol-2-amine] | 5.01 | 7.94 |
| C/C=C/Cc1cc(-c2ccccc2-c2nnn[nH]2)cc(Nc2nc(Cl)ns2)c1OCCC [Example 15, (E)-N-(5-(But-2-en-1-yl)-4-propoxy-2′-(1H-tetrazol-5-yl)-[1,1′-biphenyl]-3-yl)-3-chloro-1,2,4-thiadiazol-5-amine, Trifluoroacetic acid Salt] | 126 | – |

Continued by falling EC50 [1], values first:

| EC50 [1] [nM] | EC50 [2] [nM] | Structure (SMILES) |
| --- | --- | --- |
| 158 | 39.8 | Cc1cc(Nc2cc(-c3ccccc3-c3nn[nH]n3)ccc2N(CC(C)C)CC(C)C)no1 [Example 12, N^4,N^4-diisobutyl-N^3-(5-methylisoxazol-3-yl)-2′-(2H-tetrazol-5-yl)-[1,1′-biphenyl]-3,4-diamine] |
| 15.8 | – | CC(C)CN(c1ccc([C@H]2C[C@H]2C(=O)O)cc1Nc1nc2ccccc2s1)C1CCCCC1 (relative stereo) [Example 3, cis-2-(3-(Benzo[d]thiazol-2-ylamino)-4-(cyclohexyl(isobutyl)amino)phenyl)cyclopropanecarboxylic acid] |
| 12.6 | – | CC(C)CN(c1ccc(-c2ccccc2-c2nnn[nH]2)cc1Nc1nc(Cl)ns1)C1CCCCC1 [Example 10, N^3-(3-Chloro-1,2,4-thiadiazol-5-yl)-N^4-cyclohexyl-N^4-isobutyl-2′-(1H-tetrazol-5-yl)-[1,1′-biphenyl]-3,4-diamine] |
| 10 | 1.26 | CC(C)CN(c1ccc([C@H]2C[C@H]2C(=O)O)cc1Nc1nc(Cl)ns1)C1CCCCC1 (relative stereo) [Example 4, cis-2-(3-((3-Chloro-1,2,4-thiadiazol-5-yl)amino)-4-(cyclohexyl(isobutyl)amino)phenyl)cyclopropanecarboxylic acid] |
| 10 | 1.26 | CC(C)CN(c1ccc([C@H]2C[C@H]2C(=O)O)cc1Nc1nc(C(F)(F)F)ns1)C1CCCCC1 (relative stereo) [Example 6, cis-2-(4-(Cyclohexyl(isobutyl)amino)-3-((3-(trifluoromethyl)-1,2,4-thiadiazol-5-yl)amino)phenyl)cyclopropanecarboxylic acid, 2,2,2-trifluoroacetic acid] |
| 10 | 2.51 | CC(C)CN(c1ccc(-c2ccccc2C(=O)O)cc1Nc1nc(Cl)ns1)C1CCCCC1 [Example 9, 3′-((3-Chloro-1,2,4-thiadiazol-5-yl)amino)-4′-(cyclohexyl(isobutyl)amino)-[1,1′-biphenyl]-2-carboxylic acid] |
| 7.94 | – | CC(C)CN(c1ccc(-c2ccccc2C(=O)O)cc1Nc1nc2ccccc2[nH]1)C1CCCCC1 [Example 8, 3′-((1H-Benzo[d]imidazol-2-yl)amino)-4′-(cyclohexyl(isobutyl)amino)-[1,1′-biphenyl]-2-carboxylic acid] |
| 3.98 | 7.94 | C/C=C/Cc1cc(-c2ccccc2-c2nnn[nH]2)cc(Nc2nc3ccccc3o2)c1OCCC [Example 13, (E)-N-(5-(But-2-en-1-yl)-4-propoxy-2′-(1H-tetrazol-5-yl)-[1,1′-biphenyl]-3-yl)benzo[d]oxazol-2-amine, Trifluoroacetic acid Salt] |
